Assays:
[1] = phase I trial: dose-limiting toxicities and MTD; assay type: in vivo, human; details: on days 2 and 9; HU 500 mg every 6 h x4 on days 1 and 8
Experimental: Pregnant female patients were excluded.
Patients received the chemotherapy as outpatients.
Hematologic dose-limiting toxicity (DLT) was defined as a platelet count <75,000/μl on day 8, or a platelet count <25,000/μl lasting seven or more days, an ANC <1,000/μl on day 8 or an ANC <500/μl lasting seven or more days. Hepatic DLT was defined as bilirubin 4.5–6.0 mg/dl or transaminase 8.0–20.0 times normal (grade 3), and bilirubin >6.0 mg/dl or transaminase more than 20.0 times normal (grade 4). Other toxicities were graded according to the NCl Common Toxicity Criteria Version 1.0. Dose escalations and determination of the maximum tolerated dose (MTD) were based on DLT occurring in the first cycle. MTD was defined as the highest dose tested at which none or only one patient experienced DLT when at least six patients were treated at that dose and were evaluable for toxicity. Patients received additional cycles of therapy until unacceptable toxicity required discontinuation of treatment, the patient requested discontinuation, or disease progression occurred.

KB cells = experiment: colony-forming assay; assay type: cell-based, human; details: drug alone (0.1 mM HU or 0.3 μM Gem)
Experimental: Human oropharyngeal carcinoma KB cells (American Type Culture Collection) were cultured on plastic tissue culture plates in RPMI 1640 supplemented with 10% fetal bovine serum at 37° C. in a humidified atmosphere containing 5% carbon dioxide. […] In all studies, HU was included in the growth medium where indicated at a concentration of 0.1 mM while Gem was provided at a concentration of 0.3 μM.
The colony-forming ability of KB cells treated with HU and/or Gem at varying times was determined. Equal numbers of logarithmically growing cells were treated with HU and/or Gem at the times specified and then plated in 6-well tissue culture dishes as previously described (Zhou et al. (1998) Biochem Pharmaco 55, 1657–1665). The numbers of colonies, consisting of at least 50 cells, for each sample were counted after incubation at 37° C. for 8 generation times.
The colony-forming ability of KB cells treated with HU and/or Gem was assayed using the ID50 concentrations for KB cells. KB cells were exposed to 0.1 mM HU. 0.3 μM Gem was added after 2 to 24 hours of HU treatment, and then cells were assayed for their colony forming ability.

clinical = experiment: clinical; design: species or system human; details: in vivo
Experimental: Blood sample were collected in heparinized tubes and kept on ice until plasma could be separated by centrifugation (within 30 min). Plasma was transferred to polypropylene tubes containing tetrahydrouridine to inhibit cytidine deaminase and stored at -70° C. until analysis. […] Detection was performed by UV absorbance at 275 nm. […] The inter- and intra-day coefficient of variation across the entire range of the standard curve were <10%, and the accuracies were ±7%. The lower limit of quantification of the assay was 5 ng/ml. […] Data were fitted to a two-compartment model with first-order elimination.

KBGem clone = details: cited from earlier work

For Nc1ccn([C@@H]2O[C@H](CO)[C@@H](O)C2(F)F)c(=O)n1 [Gemcitabine, gemcitabine], the “MTD for gemcitabine in this combination of drugs” value [1] was 750 mg/m^2, the “colony formation, % of untreated controls” value (KB cells) was “approximately 50%” and the t1/2 alpha (clinical; human) was 2.4 ± 1.4 min. The “variation of CLsys within a single dose level” value (clinical; human) was “about 6 fold”, the half-life (clinical; human, t1/2 alpha) was 2.6 ± 1.9 min and the half-life (clinical; human, t 1/2 alpha, Mean) was 2.7 min. The half-life (clinical; human, t1/2 beta) was 15.2 ± 5.3 min, the “differences in pharmacokinetic parameters between day 2 and day 9” value (clinical) was “no significant differences” and the “effect of administered dose on CLsys” value (clinical) was “no apparent effect”. For the same molecule, the “increase in resistance (to Gem)” value (KBGem clone) was 10 fold.

— US7157570B2, “Human ribonucleotide reductase M2 subunit” (priority 2002, dated 2007)
